Patent US6479460B1, “Synthetic peptides and pseudopeptides having osteogenic activity and pharmaceutical compositions containing the same” (Yissum Research Development Company of the Hebrew …, priority 1996, dated 2002)
“Also recorded” adds a separate entry of the source. Where no end group is shown, it is not given here. [ ]: non-standard residue; d: D form. The star is where a group is joined. Biotin = O=C1N[C@H]2[C@H](CS[C@H]2CCCCC(=O)*)N1; Bpa = N[C@@H](Cc1ccc(C(=O)c2ccccc2)cc1)C(=O)O; Tyr(3-I) = N[C@@H](Cc1ccc(O)c(I)c1)C(=O)O; Desaminotyrosyl = O=C(CCc1ccc(O)cc1)*; NMeY = CN[C@@H](Cc1ccc(O)cc1)C(=O)O; Hexanoyl = CCCCCC(=O)*; NHCH2CH2OMe = COCCN*; GABA = NCCCC(=O)O; βAla = NCCC(=O)O

Experiments:
[1] = tested on: osteoblastic MC3T3 E1 cells; test: Proliferation assay, osteoblastic MC3T3 E1 cells; assay type: cell-based; details: for analog concentration evoking the peak inhibitory response / anti-proliferative activity (in words): absence of exogenous OGP, FIG. 8; for Relative in vitro potency (95% confidence limit) MC3T3 E1 cells: analog concentration 10^−13M, mean cell number relative to positive control OGP(1-14) = 1.00
From the text: (§1) Some of the analogs were subjected to a dose response analysis.

[2] = tested on: osteoblastic MC3T3 E1 cells; test: Inhibition of stimulatory effect of optimal OGP dose on MC3T3 E1 cells (FIG. 7); assay type: cell-based; details: cultures treated with 10^−13M synthetic OGP(1-14) plus antagonist
Method: All other cultures were treated with 10^−13M synthetic OGP(1-14) (SEQ ID NO: 1) and the indicated dose of antagonist. Data are mean±SE obtained in three culture wells per condition.
(§2) The effect of OGP analogs on osteoblastic MC3T3 E1 and fibroblastic NIH 3T3 cell proliferation was measured as before [Bab, I., et al (1992) EMBO J. 11:1867]. Some of the analogs were subjected to a dose response analysis. Otherwise the analog concentration was 10^−13M and 10^−11M in the MC3T3 E1 and NIH3T3 cell cultures, respectively. The mean cell number in triplicate culture wells was expressed as percent of a positive control triplicate dosed with OGP(1-14) (SEQ ID NO: 1). Experiments testing one dose per cell line were repeated at least four times and the activity of individual analogs expressed as the mean of results and 95% confidence limit obtained in these repetitive experiments.

[3] = tested on: fibroblastic NIH 3T3 cells; test: Proliferation assay, fibroblastic NIH 3T3 cells; assay type: cell-based; details: analog concentration 10^−11M; mean cell number relative to positive control OGP(1-14) = 1.00
From the text: as §1

[4] = tested on: osteoblastic MC3T3 E1 and fibroblastic NIH 3T3 cells; test: Proliferation assay, text statements not split by cell line; assay type: cell-based; details: for OGP-like proliferative activity (in words): in vitro, compared to OGP(1-14) or parent analog
Method: as §2

[5] = tested on: ovariectomized rats; test: Number of bone marrow derived osteoblastic colonies from ovariectomized rats; assay type: in vivo, Sabra rats; details: OVX rats, 100 ng/day/rat subcutaneous daily for eight weeks, FIG. 6
Method: Twenty five female Sabra rats weighing 250 g each were subjected to bilateral ovariectomy (OVX). Additional five control animals underwent sham OVX. All animals were left untreated for 30 days. Then the OVX animals were divided into five groups, each consisting of five rats. All animals were injected subcutaneously in the nape daily for eight weeks with following solutions: One group was given to OGP(10-14) (SEQ ID NO: 61), 100 ng/day/rat. A second group was given desamino[Tyr^10]OGP(10-14) (SEQ ID NO: 4), 100 ng/day/rat. A third group was given c(Tyr-Gly-Phe-Gly-Gly) (SEQ ID NO: 35), 100 ng/day/rat. The fourth group was given retro OGP ([…] (SEQ ID NO: 60), 300 ng/day/rat. All compounds were dissolved in PBS. An additional control OVX group was given the PBS solvent only. After termination of treatment the animals were killed and the femoral and tibial bone marrow from both posterior limbs was pooled and transferred to alpha minimal essential medium (αMEM). Bone marrow cell cultures were set in 35 mm dishes, 10 dishes per animal, as described previously [Rickard, D. J., et al (1994) Biology, 161:218]. The total number of fibroblastic colonies (CFU-f) formed was determined after three weeks in culture. Immediately after, the CFU-f cultures were stained for alkaline phosphates and co-stained for mineral with alizarin-red-S. The alizarin-red-S positive colonies were considered osteoblastic. Their frequency was expressed as their percentage of the total numbers of colonies. The value for each animal was calculated as the mean percentage obtained in the 10 dishes.

[6] = tested on: ovariectomized mice; test: Osteogenic effect of OGP analogs in ovariectomized mice; assay type: in vivo, C57B1/6 mice; details: OVX mice, subcutaneous daily for six weeks, proximal tibial metaphysis, FIG. 5
Method: Thirty two female C57B1/6 mice weighing 25 gm underwent conventional bilateral ovariectomy (OVX). Additional eight control animals were subjected to sham OVX: the anterior abdominal wall was opened and the ovaries exposed but left intact. All animals were left untreated for 30 days. The OVX animals were then divided into four groups each consisting of eight mice. All animals were injected subcutaneously in the nape daily for six weeks with the following solutions: One group was given OGP(1-14) (SEQ ID NO: 1), 30 ng/day/mouse. A second group received OGP(10-14) (SEQ ID NO: 61), 10 ng/day/mouse. A third group was given desamino[Tyr^10]OGP(10-14) (SEQ ID NO: 4). All compounds were dissolved in phosphate buffered saline (PBS). An additional control OVX group was given the PBS solvent only. One day after termination of treatment the animals were killed and the tibial bones separated, fixed in phosphate buffered formalin and subjected to conventional decalcified histological processing. Sections through the midsagital region of the tibia were stained with Masson trichrome. Bone volume was determined in the secondary spongiosa of the proximal metaphysis in two sections 200-300 μm apart from each other in one tibia from each animal using an automated computerized image analyzer. The value for each animal was the mean reading from the two sections.

[7] = listed as [N(CH3)-Tyr^10]OGP(9-14)
[8] = listed as c[Tyr-Gly-Phe-Gly-Gly]

Leu-N(CH3)-CH(CH2C6H4(OH))-C(O)-Gly-Phe-Gly-Gly (L[NMeY]GFGG) [N(Me)-[Tyr^10]OGP(9-14)]
analog concentration evoking the peak inhibitory response [1]: 10^−13 M
anti-proliferative activity (in words) [1]: inhibit osteoblastic MC3T3 E1 cell proliferation dose dependently at low concentrations with reversal of this inhibition at high doses
anti-proliferative activity (in words) [1, 7]: anti-proliferative activity
Relative in vitro potency (95% confidence limit) MC3T3 E1 cells [1]: −0.34
inhibition of stimulation by optimal OGP dose / OGP antagonism (in words) [2]: highly potent OGP antagonist
inhibition of stimulation by optimal OGP dose / OGP antagonism (in words) [2, 7]: inhibitory effect at low doses
Relative in vitro potency (95% confidence limit) NIH 3T3 cells [3]: −0.32

Nα-Ac—OGP(12-14) (Ac-Phe-Gly-Gly)
OGP-like proliferative activity (in words) [4]: essentially nil
Relative in vitro potency (95% confidence limit) MC3T3 E1 cells [1]: 0.06
Relative in vitro potency (95% confidence limit) NIH 3T3 cells [3]: 0.07

Nα-biotinylcaproyl[Bpa^12]OGP(10-14) ({Biotin-Hexanoyl}-YG[Bpa]GG) [Nα-biotinylcaproyl-[BPA^12]OGP(10-14)]
OGP-like proliferative activity (in words) [4]: remained unaltered

Tyr(m-I)-Gly-NH-CH(CH2C6H4(C(O)C6H5))C(O)-Gly-Gly ([Tyr(3-I)]G[Bpa]GG) [[Tyr^10(m-I),BPA^12]OGP(10-14)]
OGP-like proliferative activity (in words) [4]: remained unaltered
Relative in vitro potency (95% confidence limit) MC3T3 E1 cells [1]: 0.80
Relative in vitro potency (95% confidence limit) NIH 3T3 cells [3]: 0.85

Tyr-Gly-NH-CH(CH2C6H4(C(O)-C6H5))C(O)-Gly-Gly (YG[Bpa]GG) [[Bpa^12]OGP(10-14)]
OGP-like proliferative activity (in words) [4]: only a minor effect on the OGP-like proliferative activity
Relative in vitro potency (95% confidence limit) MC3T3 E1 cells [1]: 0.74
Relative in vitro potency (95% confidence limit) NIH 3T3 cells [3]: 0.86

Tyr-Gly-Phe-Gly-Asp (YGFGD) [[Asp^14]OGP(10-14)]
analog concentration evoking the peak inhibitory response [1]: 10^−13 M
anti-proliferative activity (in words) [1]: anti-proliferative activity; also recorded: inhibit osteoblastic MC3T3 E1 cell proliferation dose dependently at low concentrations with reversal of this inhibition at high doses
Relative in vitro potency (95% confidence limit) MC3T3 E1 cells [1]: −0.39
inhibition of stimulation by optimal OGP dose / OGP antagonism (in words) [2]: inhibitory effect at low doses
Relative in vitro potency (95% confidence limit) NIH 3T3 cells [3]: −0.28

[Ala^11]OGP(11-14) (AFGG)
OGP-like proliferative activity (in words) [4]: essentially nil
Relative in vitro potency (95% confidence limit) MC3T3 E1 cells [1]: 0.17
Relative in vitro potency (95% confidence limit) NIH 3T3 cells [3]: 0.07

[Gly^13ψ(CH2)2Gly^14]OGP(11-14) (GFGG; also: reduced ethylene bond ψ(CH2)2 between Gly13 and Gly14)
OGP-like proliferative activity (in words) [4]: essentially nil
Relative in vitro potency (95% confidence limit) MC3T3 E1 cells [1]: 0.15
Relative in vitro potency (95% confidence limit) NIH 3T3 cells [3]: 0.08

[Pro^11]OGP(10-14) (YPFGG)
OGP-like proliferative activity (in words) ([4]; listed as Table 5, analog 2): remained essentially unaltered
Relative in vitro potency (95% confidence limit) MC3T3 E1 cells [1]: 0.89
Relative in vitro potency (95% confidence limit) NIH 3T3 cells [3]: 0.96

c(Gly-Gly-Phe-Gly-Tyr) (GGFGY; cyclic)
OGP-like proliferative activity (in words) [4]: preserved or slightly improved its in vitro activity
Relative in vitro potency (95% confidence limit) MC3T3 E1 cells [1]: 0.95
Relative in vitro potency (95% confidence limit) NIH 3T3 cells [3]: 1.02

c(Tyr-Gly-Phe-Gly-Gly) (YGFGG; cyclic)
OGP-like proliferative activity (in words) [4]: preserved or slightly improved its in vitro activity
OGP-like proliferative activity (in words) [4, 8]: preserves the OGP-like in vitro activity
Relative in vitro potency (95% confidence limit) MC3T3 E1 cells [1]: 0.79
Relative in vitro potency (95% confidence limit) NIH 3T3 cells [3]: 1.12
reversal of reduction in osteoprogenitor cells / osteoblastic colonies (in words) [5]: improved over OGP(10-14)
reversal of reduction in osteoprogenitor cells / osteoblastic colonies (in words) [5, 8]: improved in vivo activity

c(β-Ala-Tyr-Gly-Phe-Gly-Asp)-OH ([βAla]YGFGD-OH; lactam (positions not given here); also: cyclic, closure site not given here) [c(β-Ma-Tyr-Gly-Phe-Gly-Asp)-OH]
OGP-like proliferative activity (in words) [4]: essentially nil
Relative in vitro potency (95% confidence limit) MC3T3 E1 cells [1]: −0.08
Relative in vitro potency (95% confidence limit) NIH 3T3 cells [3]: -0.19

c(γ-Abu-Tyr-Gly-Phe-Gly-Asp)-OH ([GABA]YGFGD-OH; lactam (positions not given here); also: cyclic, closure site not given here)
OGP-like proliferative activity (in words) [4]: essentially nil
Relative in vitro potency (95% confidence limit) MC3T3 E1 cells [1]: 0.13
Relative in vitro potency (95% confidence limit) NIH 3T3 cells [3]: 0.07

cyclo(GG[dF]G[dY])
OGP-like proliferative activity (in words) [4]: preserved or slightly improved its in vitro activity
Relative in vitro potency (95% confidence limit) MC3T3 E1 cells [1]: 1.03
Relative in vitro potency (95% confidence limit) NIH 3T3 cells [3]: 1.16

cyclo([dY]G[dF]GG)
OGP-like proliferative activity (in words) [4]: retained a considerable level of proliferative activity
OGP-like proliferative activity (in words) ([4]; listed as c[D-Tyr-Gly-D-Phe-Gly-Gly]): considerable level of proliferative activity
Relative in vitro potency (95% confidence limit) MC3T3 E1 cells [1]: 0.69
Relative in vitro potency (95% confidence limit) NIH 3T3 cells [3]: 0.84

desamino Tyr-Gly-Phe-Gly-Gly ([Desaminotyrosyl]GFGG) [desamino[Tyr^10]OGP(10-14)]
retention of OGP-like activity ([4]; summary of Table 1): approximately 70%
Relative in vitro potency (95% confidence limit) MC3T3 E1 cells [1]: 0.77
reversal of trabecular bone loss (in words) [6]: either similar or superior to the parent oligopeptides; also recorded: either similar or superior to those of OGP(1-14)
Relative in vitro potency (95% confidence limit) NIH 3T3 cells [3]: 0.66
reversal of reduction in osteoprogenitor cells / osteoblastic colonies (in words) [5]: either similar or superior to the parent oligopeptides; also recorded: either similar or superior to those of OGP(1-14)

desamino[Tyr^10]OGP(10-13)—NH(CH2)2OMe ([Desaminotyrosyl]GFG-NHCH2CH2OMe; SMILES COCCNC(=O)CNC(=O)[C@H](Cc1ccccc1)NC(=O)CNC(=O)CCc1ccc(O)cc1)
OGP-like proliferative activity (in words) [4]: essentially nil
Relative in vitro potency (95% confidence limit) MC3T3 E1 cells [1]: 0.03
Relative in vitro potency (95% confidence limit) NIH 3T3 cells [3]: 0.06
